Consider 29 molecules from US8653096B2, “Chemokine receptor antagonists and methods of use thereof” (Millennium Pharmaceuticals, Inc., priority 2001, dated 2014).

pIC50: −log10 of the molar value.

For one assay, the target named is T1, RANTES/MIP-1α chemokine receptor (CCR1) in THP-1 cell membranes (Homo sapiens, UniProt P32246).
T1 construct: Membranes were prepared from THP-1 cells (ATCC #TIB202); host or cells: THP-1 cells (membrane preparation)
T1 sequence (P32246 1-355): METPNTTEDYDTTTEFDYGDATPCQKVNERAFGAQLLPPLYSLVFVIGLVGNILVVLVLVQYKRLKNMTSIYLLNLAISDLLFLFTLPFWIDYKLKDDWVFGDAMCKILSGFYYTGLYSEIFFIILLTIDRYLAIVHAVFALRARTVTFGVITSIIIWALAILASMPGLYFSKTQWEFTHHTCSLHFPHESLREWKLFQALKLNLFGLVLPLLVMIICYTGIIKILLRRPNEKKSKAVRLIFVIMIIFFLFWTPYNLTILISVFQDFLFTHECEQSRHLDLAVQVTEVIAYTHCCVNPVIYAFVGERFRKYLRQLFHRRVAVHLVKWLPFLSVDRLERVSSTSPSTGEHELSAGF
Description: Receptor binding assay: 125I-RANTES or 125I-MIP-1α binding to THP-1 cell membranes. Conditions: enantiomers resolved from the racemate on ChiralPak AD; test not named.
Consider `CC(C)(O)c1ccc2c(c1)C(=CCCN1CCC(O)(c3ccc(Cl)cc3)C(C)(CO)C1)c1cccnc1CO2` (single isomer, unassigned) [Example 483-1, 4-(4-Chloro-phenyl)-3-hydroxymethyl-1-{3-[7-(hydroxyl-1-methyl-ethyl)-11H-10-oxa-1-aza-dibenzo[a,d]cyclohepten-5-ylidene]-propyl}-3-methyl-piperidine-4-ol], for which the “relative activity of resolved enantiomers” value is “more active enantiomer”. Consider `CC(C)(O)c1ccc2c(c1)C(=CCCN1CCC(O)(c3ccc(Cl)cc3)C(C)(CO)C1)c1cccnc1CO2` (single isomer, unassigned) [Example 483-2, 4-(4-Chloro-phenyl)-3-hydroxymethyl-1-{3-[7-(hydroxyl-1-methyl-ethyl)-11H-10-oxa-1-aza-dibenzo[a,d]cyclohepten-5-ylidene]-propyl}-3-methyl-piperidine-4-ol], for which the “relative activity of resolved enantiomers” value was “less active enantiomer”.

The assay is the same for the next values; noted with them: inhibitor concentration required for 50% inhibition of specific binding; 125I-RANTES or 125I-MIP-1α as ligand, THP-1 cell membranes; read-out: IC50.
On to “8-[3-(5,11-Dihydro-7-methoxy[1]benzoxepino[2,3-b]pyridin-5-ylidene)propyl]-1-phenyl-1,3,8-triazaspiro[4,5]decan-4-one [Example 69]”, for which the pIC50 (as a rule, the negative decadic logarithm of the IC50, by convention in mol/L) is above 6.00. Same read-out and setting: for `CC(C)(O)c1ccc2c(c1)C(=CCCN1CC[C@](O)(c3ccc(Cl)cc3)[C@H](C#N)C1)c1cccnc1CO2` (relative stereo) [Example 479, Trans-4-(4-Chloro-phenyl)-4-hydroxy-1-{3-[7-(1-hydroxyl-1-methyl-ethyl)-11H-10-oxa-1-aza-dibenzo[a,d]cyclohepten-5-ylidene]-propyl}-piperidin-3-carbonitrile] the value was above 6.00; for `CC(C)(O)c1ccc2c(c1)C(=CCCN1CC[C@@](O)(c3ccc(Cl)cc3)[C@H](C#N)C1)c1cccnc1CO2` (relative stereo) [Example 480, Cis-4-(4-Chloro-phenyl)-4-hydroxy-1-{3-[7-(1-hydroxyl-1-methyl-ethyl)-11H-10-oxa-1-aza-dibenzo[a,d]cyclohepten-5-ylidene]-propyl}-piperidin-3-carbonitrile], above 6.00. As for `CC(C)(O)c1ccc2c(c1)C(=CCCN1CCC(O)(c3ccc(Cl)cc3)C(C)(CO)C1)c1cccnc1CO2` (single isomer, unassigned) [Example 483-1, 4-(4-Chloro-phenyl)-3-hydroxymethyl-1-{3-[7-(hydroxyl-1-methyl-ethyl)-11H-10-oxa-1-aza-dibenzo[a,d]cyclohepten-5-ylidene]-propyl}-3-methyl-piperidine-4-ol], the pIC50 was above 6.00. For the molecule `CC(C)(O)c1ccc2c(c1)C(=CCCN1CCC(O)(c3ccc(Cl)cc3)C(C)(CO)C1)c1cccnc1CO2` (single isomer, unassigned) [Example 483-2, 4-(4-Chloro-phenyl)-3-hydroxymethyl-1-{3-[7-(hydroxyl-1-methyl-ethyl)-11H-10-oxa-1-aza-dibenzo[a,d]cyclohepten-5-ylidene]-propyl}-3-methyl-piperidine-4-ol], the negative logarithm of the IC50 (pIC50) is above 5.00. In the case of `CCN(Cc1ccc(Cl)cc1)CC1CCN(CCC=C2c3cc(C(C)(C)O)ccc3OCc3ncccc32)C1` (stereo in doubt) [Example 526, (R)-2-{5-[3-(3-{[(4-Chloro-benzyl)-ethyl-amino]-methyl}-pyrrolidin-1-yl)-propylidene]5,11-dihydro-10-oxa-1-aza-dibenzo[a,d]cyclohepten-7-yl}-propan-2-ol], the pIC50 is above 6.00. Turning to `OC1(c2ccc(Cl)cc2)CCN(CCC=C2c3ccccc3CCc3ccccc32)CC1` [Example 1, 4-(4-Chlorophenyl)-1-[3-(10,11-dihydro-5H-dibenzo[a,d]cycloheptene-5-ylidene)propyl]piperidin-4-ol], the negative logarithm of the IC50 (pIC50) is above 6.00.

`OC1(c2ccc(Cl)cc2)CCN(CCC=C2c3ccccc3COc3ccccc32)CC1` [Example 2, 4-(4-Chlorophenyl)-1-[3-(6,11-dihydrodibenz[b,e]oxepin-11-ylidene)propyl]piperidin-4-ol]: the pIC50 is above 6.00. Still for that read-out and setting: for `OC1(c2ccc(Cl)cc2)CCN(CCC=C2c3ccccc3CSc3ccccc32)CC1` [Example 8, 4-(4-Chlorophenyl)-1-[3-(6,11-dihydro-dibenz[b,e]thiepin-11-ylidene)propyl]piperidin-4-ol] the value was above 6.00; for `O=C1c2ccccc2C(=CCCN2CCC(O)(c3ccc(Cl)cc3)CC2)c2ccccc2N1Cc1ccccc1` [Example 12, 1-[3-(5-Benzyl-6,11-dihydro-6-oxo-5H-dibenz[b,e]azepin-11-ylidene)propyl]-4-(4-chlorophenyl)-piperidin-4-ol], above 6.00; for `O=C(O)CN1C(=O)c2ccccc2C(=CCCN2CCC(O)(c3ccc(Cl)cc3)CC2)c2ccccc21` [Example 17, 1-[3-(5-Carboxymethyl-6,11-dihydro-6-oxo-5H-dibenz[b,e]azepin-11-ylidene)propyl]-4-(4-chlorophenyl)-piperidin-4-ol], above 5.00. Same read-out and setting: for `CCOC(=O)CN1C(=O)c2ccccc2C(=CCCN2CCC(O)(c3ccc(Cl)cc3)CC2)c2ccccc21` [Example 18, 4-(4-Chlorophenyl)-1-[3-(6,11-dihydro-5-ethoxycarbonymethyl-6-oxo-5H-dibenz[b,e]azepin-11-ylidene)propyl]piperidin-4-ol] the value was above 6.00; for `CN1C(=O)c2ccccc2C(=CCCN2CCC(O)(c3ccc(Cl)cc3)CC2)c2ccccc21` [Example 19, 4-(4-Chlorophenyl)-1-[3-(6,11-dihydro-5-methyl-6-oxo-5H-dibenz[b,e]azepin-11-ylidene)propyl]piperidin-4-ol], above 6.00.

Consider `OC1(c2ccc(Cl)cc2)CCN(CCC=C2c3ccccc3C=Cc3ccccc32)CC1` [Example 21, 4-(4-Chlorophenyl)-1-[3-(5H-dibenzo[a,d]cycloheptene-5-ylidene)propyl]piperidin-4-ol], for which the pIC50 was above 6.00. On to `COC(=O)c1ccc2c(c1)C(=CCCN1CCC(O)(c3ccc(Cl)cc3)CC1)c1ccccc1CO2` [Example 22, 4-(4-Chlorophenyl)-1-[3-(6,11-dihydro-2-methoxycarbonyldibenz[b,e]oxepin-11-ylidene)propyl]piperidin-4-ol], for which the pIC50 is above 6.00. On the same count and under the same terms, for `CCCCOC(=O)c1ccc2c(c1)C(=CCCN1CCC(O)(c3ccc(Cl)cc3)CC1)c1ccccc1CO2` [Example 23, 1-[3-(2-Butoxycarbonyl-6,11-dihydrodibenz[b,e]oxepin-11-ylidene)propyl]-4-(4-chlorophenyl)piperidin-4-ol] the value was above 6.00; for `O=C(O)c1ccc2c(c1)C(=CCCN1CCC(O)(c3ccc(Cl)cc3)CC1)c1ccccc1CO2` [Example 24, 1-[3-(2-Carboxyl-6,11-dihydrodibenz[b,e]oxepin-11-ylidene)propyl]-4-(4-chlorophenyl)piperidin-4-ol], above 5.00. On the same count and under the same terms, for `CN(C)C(=O)c1ccc2c(c1)C(=CCCN1CCC(O)(c3ccc(Cl)cc3)CC1)c1ccccc1CO2` [Example 25, 4-(4-Chlorophenyl)-1-[3-(6,11-dihydro-2-dimethylaminocarbonyldibenz[b,e]oxepin-11-ylidene)propyl]piperidin-4-ol] the value was above 6.00; for `OCc1ccc2c(c1)C(=CCCN1CCC(O)(c3ccc(Cl)cc3)CC1)c1ccccc1CO2` [Example 26, 4-(4-Chlorophenyl)-1-[3-(6,11-dihydro-2-hydroxymethyldibenz[b,e]oxepin-11-ylidene)propyl]piperidin-4-ol], above 6.00; for `CC(C)(O)c1ccc2c(c1)C(=CCCN1CCC(O)(c3ccc(Cl)cc3)CC1)c1ccccc1CO2` [Example 27, 4-(4-Chlorophenyl)-1-[3-(6,11-dihydro-2-(1-hydroxy-1-methyl)ethyldibenz[b,e]oxepin-11-ylidene)propyl]piperidin-4-ol], above 6.00. The same measure, in the same setting: for `N#Cc1ccc2c(c1)C(=CCCN1CCC(O)(c3ccc(Cl)cc3)CC1)c1ccccc1CO2` [Example 28, 4-(4-Chlorophenyl)-1-[3-(2-cyano-6,11-dihydrodibenz[b,e]oxepin-11-ylidene)propyl]piperidin-4-ol] the value was above 6.00; for `NCc1ccc2c(c1)C(=CCCN1CCC(O)(c3ccc(Cl)cc3)CC1)c1ccccc1CO2` [Example 29, 1-[3-(2-Aminomethyl-6,11-dihydrodibenz[b,e]oxepin-11-ylidene)propyl]-4-(4-chlorophenyl)piperidin-4-ol], above 6.00.

In the case of `O=[N+]([O-])c1ccc2c(c1)C(=CCCN1CCC(O)(c3ccc(Cl)cc3)CC1)c1ccccc1CO2` [Example 30, 4-(4-Chlorophenyl)-1-[3-(6,11-dihydro-2-nitrodibenz[b,e]oxepin-11-ylidene)propyl]piperidin-4-ol], the pIC50 is above 6.00. Same read-out and setting: in the case of `Nc1ccc2c(c1)C(=CCCN1CCC(O)(c3ccc(Cl)cc3)CC1)c1ccccc1CO2` [Example 31, 1-[3-(2-Amino-6,11-dihydrodibenz[b,e]oxepin-11-ylidene)propyl]-4-(4-chlorophenyl)piperidin-4-ol] it was above 6.00; in that of `Oc1ccc2c(c1)C(=CCCN1CCC(O)(c3ccc(Cl)cc3)CC1)c1ccccc1CO2` [Example 32, 4-(4-Chlorophenyl)-1-[3-(6,11-dihydro-2-hydroxydibenz[b,e]oxepin-11-ylidene)propyl]piperidin-4-ol], above 6.00; in that of `COc1ccc2c(c1)C(=CCCN1CCC(O)(c3ccc(Cl)cc3)CC1)c1ccccc1CO2` [Example 33, 4-(4-Chlorophenyl)-1-[3-(6,11-dihydro-2-methoxydibenz[b,e]oxepin-11-ylidene)propyl]piperidin-4-ol], above 6.00. For `CCOc1ccc2c(c1)C(=CCCN1CCC(O)(c3ccc(Cl)cc3)CC1)c1ccccc1CO2` [Example 34, 4-(4-Chlorophenyl)-1-[3-(6,11-dihydro-2-ethoxydibenz[b,e]oxepin-11-ylidene)propyl]piperidin-4-ol], the pIC50 is above 6.00.

Turning to `OC1(c2ccc(Cl)cc2)CCN(CCC=C2c3ccccc3COc3cc(Br)ccc32)CC1` [Example 35, 1-[3-(3-Bromo-6,11-dihydrodibenz [b,e]oxepin-11-ylidene)propyl]-4-(4-chlorophenyl)piperidin-4-ol], the pIC50 was above 6.00. With `COC1(c2ccc(Cl)cc2)CCN(CCC=C2c3ccccc3COc3ccccc32)CC1` [Example 36, 4-(4-Chlorophenyl)-1-[3-(6,11-dihydrodibenz[b,e]oxepin-11-ylidene)propyl]-4-methoxypiperidine], the pIC50 was above 6.00.
